# Article PMC11087509, “Multimodal binding and inhibition of bacterial ribosomes by the antimicrobial peptides Api137 and Api88” (Nature Communications, 2024)
# Where a SMILES comes first, the peptide text is derived from it. The star is where a group is joined. Orn(α-tetramethylguanidino) = CN(C)C(=N[C@@H](CCCN)C(=O)*)N(C)C
# How the values were obtained:
# 30S subunit = experiment: Fluorescence polarization binding, 30S subunit; set-up: species or system E. coli; settings: ratio 30S / 50S; cf-labeled
# Method: Several hundred grams of log-phase cells were commercially produced and purchased. Cells were washed in buffer A (20 mmol/L HEPES (pH 7.6), 6 mmol/L MgAc2, 30 mmol/L AcOK, 4 mmol/L ß-mercaptoethanol) and lysed in an M-110L microfluidizer (Microfluidics) at 17,000 psi and 4 °C. Cell debris was removed by low-speed centrifugation (15,000× g, 10 min, 4 °C) to obtain S30 lysate. Crude ribosomes, mostly containing 70S ribosomes, were pelleted by ultracentrifugation (40,000× g, 17 h, 4 °C) and resuspended in buffer A. The 70S ribosomes were separated from 30S and 50S subunits by zonal ultracentrifugation (Beckman Ti-15; 6–40% sucrose gradient in buffer A, 44,000× g, 16 h, 4 °C). The 70S-containing fractions were collected, and the ribosomes were sedimented by ultracentrifugation (40,000× g, 17 h, 4 °C). […]
# Dissociation constants (Kd) were determined using purified 70S ribosome, 50S or 30S subunit and cf-labeled peptides in ribosome preparation buffer. […] Fluorescence polarization was measured on a […]^TM microplate reader (Beckman Coulter, Krefeld, Germany) in the top reading position (λexc = 485 nm, λem = 535 nm). […]
# [1] = tested on: ribosome (arrest at UAG stop codon of model yrbA ORF); experiment: In vitro toeprinting analysis (yrbA-fs15 template, TAG stop codon); format: biochemical; settings: 50 µmol/L; gel, one of two replicates
# Method: Toeprinting experiments using the yrbA-fs15 DNA template with a TAG stop codon were performed in the NEB classic PURExpress system (New England Biolabs)[21] as described above. The template was prepared by PCR[21] by combining the overlapping primers T7, T7-IR-AUG, IR-yrbA-fs15-RF1 (for TAG), post-NV1, and NV1, rendering the sequence:
# […](TAG)[…] (ORF sequence is underlined). The peptides Api137 and Api88 were added from stock solutions in water to a final concentration of 50 µM.
smiles,measurement,setting,value
CC[C@H](C)[C@H](NC(=O)[C@H](Cc1ccc(O)cc1)NC(=O)[C@@H](NC(=O)[C@@H]1CCCN1C(=O)[C@H](CCCNC(=N)N)NC(=O)[C@H](CC(N)=O)NC(=O)[C@H](CC(N)=O)NC(=O)[C@H](CCCN)N=C(N(C)C)N(C)C)C(C)C)C(=O)N1CCC[C@H]1C(=O)N[C@@H](CCCNC(=N)N)C(=O)N1CCC[C@H]1C(=O)N[C@@H](CCCNC(=N)N)C(=O)N1CCC[C@H]1C(=O)N1CCC[C@H]1C(=O)N[C@@H](Cc1c[nH]cn1)C(=O)N1CCC[C@H]1C(=O)N[C@@H](CCCNC(=N)N)C(=O)N[C@@H](CC(C)C)C(=O)O [Api137] ({Orn(α-tetramethylguanidino)}-NNRPVYIPRPRPPHPRL-OH),binding to 30S subunit weaker compared to 50S subunit,30S subunit,~10 fold
same,toeprinting band at the UAG stop codon,[1],intense toeprinting band
